Results published in ChEMBL document CHEMBL1221361, “Substituted biaryl oxazoles, imidazoles, and thiazoles as sodium channel blockers” (Bioorg Med Chem Lett, 2010).
Where “and” joins values, the source holds several entries; their conditions need not be identical. Identical values can stand only once.

Tests used:
[1] = biological target: T1, Sodium channel protein type 9 subunit alpha (Homo sapiens, UniProt Q15858); assay: Blockade of human Nav1.7 at 1 uM by voltage ion probe reader based FRET assay
Target sequence in this assay (Q15858 whole entry, looked up): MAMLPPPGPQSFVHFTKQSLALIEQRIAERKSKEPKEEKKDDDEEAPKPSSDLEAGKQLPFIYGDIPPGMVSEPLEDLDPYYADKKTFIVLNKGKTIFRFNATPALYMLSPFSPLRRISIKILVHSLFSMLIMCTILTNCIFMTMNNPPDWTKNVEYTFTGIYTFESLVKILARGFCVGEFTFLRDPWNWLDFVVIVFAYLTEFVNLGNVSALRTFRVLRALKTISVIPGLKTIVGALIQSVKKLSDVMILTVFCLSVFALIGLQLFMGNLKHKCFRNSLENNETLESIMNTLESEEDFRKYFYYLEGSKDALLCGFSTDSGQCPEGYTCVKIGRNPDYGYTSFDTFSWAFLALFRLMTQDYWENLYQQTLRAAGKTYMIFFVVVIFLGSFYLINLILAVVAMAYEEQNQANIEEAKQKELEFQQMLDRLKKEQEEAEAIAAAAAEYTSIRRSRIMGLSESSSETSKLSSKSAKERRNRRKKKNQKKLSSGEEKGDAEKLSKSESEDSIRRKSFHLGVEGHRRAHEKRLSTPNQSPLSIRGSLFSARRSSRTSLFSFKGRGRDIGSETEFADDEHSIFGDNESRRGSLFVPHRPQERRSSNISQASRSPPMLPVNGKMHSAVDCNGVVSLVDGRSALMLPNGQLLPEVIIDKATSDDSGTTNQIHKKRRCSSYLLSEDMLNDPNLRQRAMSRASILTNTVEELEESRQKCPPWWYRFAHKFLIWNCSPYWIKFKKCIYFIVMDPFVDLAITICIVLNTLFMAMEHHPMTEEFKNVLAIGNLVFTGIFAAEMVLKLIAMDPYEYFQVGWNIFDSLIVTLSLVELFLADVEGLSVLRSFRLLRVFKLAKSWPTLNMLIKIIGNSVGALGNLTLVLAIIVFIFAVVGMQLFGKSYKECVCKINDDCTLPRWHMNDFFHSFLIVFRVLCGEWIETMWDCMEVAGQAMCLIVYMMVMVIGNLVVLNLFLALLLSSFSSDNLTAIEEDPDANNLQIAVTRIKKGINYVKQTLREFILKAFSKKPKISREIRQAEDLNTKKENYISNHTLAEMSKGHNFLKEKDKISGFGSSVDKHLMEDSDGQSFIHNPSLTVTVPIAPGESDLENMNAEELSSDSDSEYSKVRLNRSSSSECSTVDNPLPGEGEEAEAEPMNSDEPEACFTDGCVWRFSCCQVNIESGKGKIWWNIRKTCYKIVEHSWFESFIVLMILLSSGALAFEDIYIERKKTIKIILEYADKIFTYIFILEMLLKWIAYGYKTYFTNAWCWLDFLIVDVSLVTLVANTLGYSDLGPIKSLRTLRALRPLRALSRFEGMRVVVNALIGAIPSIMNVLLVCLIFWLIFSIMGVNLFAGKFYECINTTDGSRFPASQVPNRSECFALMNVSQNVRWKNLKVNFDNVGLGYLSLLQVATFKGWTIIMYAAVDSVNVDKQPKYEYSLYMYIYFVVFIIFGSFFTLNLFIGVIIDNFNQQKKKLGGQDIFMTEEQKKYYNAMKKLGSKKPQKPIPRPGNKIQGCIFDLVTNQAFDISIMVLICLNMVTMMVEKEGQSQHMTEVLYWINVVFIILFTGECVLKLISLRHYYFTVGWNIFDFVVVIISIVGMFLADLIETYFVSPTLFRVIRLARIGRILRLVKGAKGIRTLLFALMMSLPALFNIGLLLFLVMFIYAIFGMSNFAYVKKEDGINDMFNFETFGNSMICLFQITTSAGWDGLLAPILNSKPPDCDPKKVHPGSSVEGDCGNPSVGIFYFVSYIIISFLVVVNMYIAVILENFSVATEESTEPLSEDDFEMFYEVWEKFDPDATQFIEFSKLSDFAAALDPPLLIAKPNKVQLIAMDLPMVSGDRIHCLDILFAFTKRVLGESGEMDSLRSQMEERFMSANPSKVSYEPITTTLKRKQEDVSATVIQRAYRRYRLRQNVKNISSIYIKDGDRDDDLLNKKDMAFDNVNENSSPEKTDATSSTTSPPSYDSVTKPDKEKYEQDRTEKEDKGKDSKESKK

[2] = biological target: T1, Sodium channel protein type 9 subunit alpha; assay: Blockade of human Nav1.7 by voltage ion probe reader based FRET assay
Target sequence in this assay (Q15858 whole entry): as the sequence (Q15858 whole entry, looked up) above

[3] = biological target: T1, Sodium channel protein type 9 subunit alpha; assay: Blockade of human Nav1.7 by electrophysiology assay
Target sequence in this assay (Q15858 whole entry): as the sequence (Q15858 whole entry, looked up) above

Cytochrome P450 2C9 = Cytochrome P450 2C9 (Homo sapiens, UniProt P11712); assay: Inhibition of CYP2C9; format: ADME
Sequence of Cytochrome P450 2C9 (P11712 whole entry): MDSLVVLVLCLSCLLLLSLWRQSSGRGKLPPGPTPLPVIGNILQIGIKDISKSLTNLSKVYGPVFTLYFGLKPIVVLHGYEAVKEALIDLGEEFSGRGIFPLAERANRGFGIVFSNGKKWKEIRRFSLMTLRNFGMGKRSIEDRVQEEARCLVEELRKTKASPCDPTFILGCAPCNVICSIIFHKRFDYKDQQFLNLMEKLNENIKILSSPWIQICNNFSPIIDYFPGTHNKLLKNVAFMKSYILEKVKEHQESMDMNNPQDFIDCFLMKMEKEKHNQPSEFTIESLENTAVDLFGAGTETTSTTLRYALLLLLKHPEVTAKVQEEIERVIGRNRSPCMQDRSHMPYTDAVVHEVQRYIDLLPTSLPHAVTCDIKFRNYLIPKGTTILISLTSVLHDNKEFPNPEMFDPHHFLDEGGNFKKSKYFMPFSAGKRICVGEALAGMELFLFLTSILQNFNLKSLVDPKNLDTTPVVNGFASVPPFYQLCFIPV

Cytochrome P450 2D6 = Cytochrome P450 2D6 (Homo sapiens, UniProt P10635); assay: Inhibition of CYP2D6; format: ADME
Sequence of Cytochrome P450 2D6 (P10635 whole entry): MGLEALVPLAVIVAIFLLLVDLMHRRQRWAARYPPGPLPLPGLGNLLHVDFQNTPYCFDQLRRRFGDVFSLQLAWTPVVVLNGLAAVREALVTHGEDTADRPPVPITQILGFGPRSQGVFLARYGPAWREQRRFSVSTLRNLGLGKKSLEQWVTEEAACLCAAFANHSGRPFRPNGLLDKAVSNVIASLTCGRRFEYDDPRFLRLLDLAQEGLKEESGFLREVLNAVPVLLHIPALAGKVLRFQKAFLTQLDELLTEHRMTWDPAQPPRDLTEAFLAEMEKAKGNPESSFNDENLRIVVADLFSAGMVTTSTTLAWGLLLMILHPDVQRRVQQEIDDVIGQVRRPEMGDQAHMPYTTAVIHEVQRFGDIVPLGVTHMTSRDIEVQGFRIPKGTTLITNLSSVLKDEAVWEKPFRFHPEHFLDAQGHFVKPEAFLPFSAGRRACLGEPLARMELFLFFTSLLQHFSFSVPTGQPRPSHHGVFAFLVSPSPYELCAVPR

[4] = Oral bioavailability in rat at 1 to 3 mg/kg; format: ADME, organism-based; conditions: in vivo
Cytochrome P450 3A4 = Cytochrome P450 3A4 (Homo sapiens, UniProt P08684); assay: Inhibition of CYP3A4; format: ADME
Sequence of Cytochrome P450 3A4 (P08684 whole entry): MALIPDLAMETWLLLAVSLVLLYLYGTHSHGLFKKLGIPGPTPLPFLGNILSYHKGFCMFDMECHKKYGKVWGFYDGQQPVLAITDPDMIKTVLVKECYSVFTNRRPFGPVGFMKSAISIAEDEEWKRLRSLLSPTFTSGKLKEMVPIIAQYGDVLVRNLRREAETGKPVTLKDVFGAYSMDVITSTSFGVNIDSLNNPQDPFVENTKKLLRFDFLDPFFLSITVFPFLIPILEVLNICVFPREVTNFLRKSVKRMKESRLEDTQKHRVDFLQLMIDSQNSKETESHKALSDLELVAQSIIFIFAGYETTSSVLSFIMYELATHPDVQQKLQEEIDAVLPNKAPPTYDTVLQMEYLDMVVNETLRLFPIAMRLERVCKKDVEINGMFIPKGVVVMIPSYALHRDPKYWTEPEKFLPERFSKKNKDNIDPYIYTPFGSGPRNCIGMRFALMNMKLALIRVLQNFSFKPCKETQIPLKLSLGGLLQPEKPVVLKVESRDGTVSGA

hERG (KCNH2) = hERG (KCNH2) (Homo sapiens, UniProt Q12809); assay: Displacement of radiolabeled MK-0499 from human ERG at 1 uM; conditions: probe radiolabeled MK-0499
Sequence of hERG (KCNH2) (Q12809 whole entry): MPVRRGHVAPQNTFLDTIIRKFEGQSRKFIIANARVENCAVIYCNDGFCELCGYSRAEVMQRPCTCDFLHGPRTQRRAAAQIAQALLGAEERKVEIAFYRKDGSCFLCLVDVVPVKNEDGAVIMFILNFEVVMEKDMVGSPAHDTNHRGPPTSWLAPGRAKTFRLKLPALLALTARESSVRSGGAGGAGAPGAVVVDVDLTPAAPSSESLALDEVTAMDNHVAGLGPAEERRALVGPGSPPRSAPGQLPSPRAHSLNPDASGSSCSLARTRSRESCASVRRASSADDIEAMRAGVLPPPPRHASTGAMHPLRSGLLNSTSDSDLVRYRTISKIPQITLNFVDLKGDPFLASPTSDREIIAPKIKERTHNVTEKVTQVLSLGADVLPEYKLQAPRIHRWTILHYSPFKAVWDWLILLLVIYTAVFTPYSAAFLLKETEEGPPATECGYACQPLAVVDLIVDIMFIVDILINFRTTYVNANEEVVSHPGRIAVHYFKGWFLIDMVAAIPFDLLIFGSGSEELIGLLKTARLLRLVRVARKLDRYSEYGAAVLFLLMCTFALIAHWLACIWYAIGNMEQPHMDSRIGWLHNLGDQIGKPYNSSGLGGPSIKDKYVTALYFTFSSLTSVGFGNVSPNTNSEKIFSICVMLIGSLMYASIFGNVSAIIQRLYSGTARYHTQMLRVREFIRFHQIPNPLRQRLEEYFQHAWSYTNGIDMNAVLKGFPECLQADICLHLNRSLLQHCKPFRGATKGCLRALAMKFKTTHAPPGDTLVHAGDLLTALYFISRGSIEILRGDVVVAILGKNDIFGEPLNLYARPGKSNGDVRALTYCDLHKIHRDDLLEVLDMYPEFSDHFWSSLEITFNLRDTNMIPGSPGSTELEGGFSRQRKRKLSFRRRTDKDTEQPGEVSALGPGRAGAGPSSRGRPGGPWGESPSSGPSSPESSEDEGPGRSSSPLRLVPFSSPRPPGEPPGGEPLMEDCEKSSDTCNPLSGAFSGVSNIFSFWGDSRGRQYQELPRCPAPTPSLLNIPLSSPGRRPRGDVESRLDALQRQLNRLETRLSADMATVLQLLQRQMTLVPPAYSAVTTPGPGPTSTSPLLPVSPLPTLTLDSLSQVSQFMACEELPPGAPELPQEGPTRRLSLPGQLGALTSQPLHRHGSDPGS

[5] = Half life in rat plasma at 1 to 3 mg/kg; format: ADME, organism-based; design: dose 1-3 mg/kg
[6] = Clearance in rat plasma at 1 to 3 mg/kg; format: ADME, organism-based; design: dose 1-3 mg/kg
[7] = Metabolic stability in dog hepatocytes assessed as compound remaining after 2 hrs; format: ADME, cell-based, Canis lupus familiaris, Hepatocyte; conditions: read-out: INH
[8] = Half life in rat plasma at 1 to 2 mg/kg; format: ADME, organism-based; design: dose 1-2 mg/kg
[9] = Metabolic stability in rat liver S9 microsomes assessed as compound remaining after 1 hr; format: ADME, Microsome; conditions: read-out: INH
Rattus norvegicus = assay: Analgesic activity rat spinal nerve ligation Chung model assessed as reversal of mechanical allodynia at 10 mg/kg, po administered 14 days after surgery measured 2 hrs after postdose; format: functional
[10] = Clearance in rat plasma at 1 to 2 mg/kg; format: ADME, organism-based; design: dose 1-2 mg/kg
[11] = Metabolic stability in human liver S9 microsomes assessed as compound remaining after 1 hr; format: ADME, Microsome; conditions: read-out: INH
[12] = Metabolic stability in dog liver S9 microsomes assessed as compound remaining after 1 hr; format: ADME, Canis lupus familiaris, Microsome; conditions: read-out: INH
[13] = Oral bioavailability in rat at 1 to 2 mg/kg; format: ADME, organism-based; conditions: in vivo
[14] = biological target: T1, Sodium channel protein type 9 subunit alpha; assay: Binding affinity to human Nav1.7
Target sequence in this assay (Q15858 whole entry): as the sequence (Q15858 whole entry, looked up) above

In the case of `Nc1nc(-c2cccc(-c3ccccc3OC(F)(F)F)c2)co1`, the inhibition [1] is reported as 37%.
For `FC(F)(F)Oc1ccccc1-c1cccc(-c2c[nH]cn2)c1`, the inhibition [1] was 14%.
In the case of `FC(F)(F)c1ccccc1-c1cccc(-c2cocn2)c1`, the IC50 [2] is reported as 5310 nM.
Work on `Cn1cc(-c2cc(-c3ccccc3OC(F)(F)F)ccc2F)nc1C(N)=O` yielded an inhibition [1] of 15%.
In the case of `Cc1nc(-c2cccc(-c3ccccc3OC(F)(F)F)c2)cs1`, the IC50 [2] is reported as 2990 nM.
For `FC(F)(F)Oc1ccccc1-c1cccc(-c2csc(-c3cnccn3)n2)c1`, the IC50 [2] was 1260 nM.
With `NC(=O)c1nc(-c2ccc(-c3ccccc3OC(F)(F)F)cc2)cs1` the inhibition [1] was 6.1%.
`Cc1nc(-c2cccc(-c3ccccc3OC(F)(F)F)c2)co1` gave an IC50 [2] of 2140 nM.
`CS(=O)(=O)Nc1nc(-c2cccc(-c3ccccc3OC(F)(F)F)c2)cs1` showed an inhibition [1] of 65%.
`FC(F)(F)Oc1ccccc1-c1cccc(-c2csc(-c3ncc[nH]3)n2)c1` gave an IC50 [2] of 950 nM.
With `Cn1cc(-c2cccc(-c3ccccc3C(F)(F)F)c2)nc1C(N)=O` the IC50 [2] was 1250 nM.
With `Cc1sc(C(N)=O)nc1-c1cccc(-c2ccccc2OC(F)(F)F)c1` the IC50 [2] was 430 nM.
Work on `FC(F)(F)Oc1ccccc1-c1cccc(-c2cscn2)c1` yielded an IC50 [2] of 2160 nM.
`NC(=O)Cc1nc(-c2cccc(-c3ccccc3OC(F)(F)F)c2)cs1` gave an IC50 [2] of 620 nM.
`FC(F)(F)Oc1ccccc1-c1cccc(-c2csc(-c3ccccn3)n2)c1` gave an inhibition [1] of 21%.
Work on `CN(C)C(=O)Nc1nc(-c2cccc(-c3ccccc3OC(F)(F)F)c2)cs1` yielded an inhibition [1] of 6.6%.
With `NC(=O)c1nc(-c2cccc(-c3ccccc3C(F)(F)F)c2)c[nH]1` the IC50 [3] was 270 nM, the IC50 (Cytochrome P450 2C9) was > 40000 nM and the IC50 (Cytochrome P450 2D6) was > 40000 nM. For the same molecule, the bioavailability [4] was 46%, the IC50 (Cytochrome P450 3A4) was > 40000 nM and the inhibition [1] was 55%. It also gave an inhibition at 1 µM (hERG (KCNH2)) of 25%, a half-life [5] of 30 min and a clearance [6] of 23 mL/min/kg.
Molecule `N#CCc1nc(-c2cccc(-c3ccccc3OC(F)(F)F)c2)cs1` has an inhibition [1] of 8%.
With `CN(C)C(=O)c1nc(-c2cccc(-c3ccccc3OC(F)(F)F)c2)cs1` the IC50 [2] was 1370 nM.
In the case of `NC(=O)c1nc(-c2cccc(-c3ccccc3OC(F)(F)F)c2)co1`, the IC50 [2] is reported as 2360 nM.
For `FC(F)(F)Oc1ccccc1-c1cccc(-c2cocn2)c1`, the IC50 [2] was 1940 nM.
For `CCOC(=O)c1nc(-c2cccc(-c3ccccc3OC(F)(F)F)c2)c(C)s1`, the inhibition [1] was 8%.
For `NC(=O)c1nc(-c2cccc(-c3ccccc3OC(F)(F)F)c2)cs1`, the remaining at 2 h [7] was < 5%, the half-life [8] was 79.8 min and the IC50 [3] was 15 nM. It also gave a remaining at 1 h [9] of 68%, an IC50 (Cytochrome P450 2C9) of 16000 nM and an IC50 (Cytochrome P450 2D6) of 48000 nM. It also gave an inhibition in vivo at 10 mg/kg (Rattus norvegicus) of 61%, an IC50 (Cytochrome P450 3A4) of 18000 nM and a clearance [10] of 52 mL/min/kg. The inhibition at 1 µM (hERG (KCNH2)) was 0.5%, the remaining at 1 h [11] was 47% and the remaining at 1 h [12] was 10%. For the same molecule, the IC50 [2] was 230 nM (2×) and 228 nM and the bioavailability [13] was 20%.
With `NC(=O)N/N=C/c1ccc(Oc2ccc(F)cc2)cc1` the Ki [14] was 360 nM.
In the case of `O=C1NC(=O)/C(=C/c2cccc(-c3ccccc3OC(F)(F)F)c2)S1`, the Ki [14] is reported as 20 nM.
`FC(F)(F)Oc1ccccc1-c1cccc(-c2csc(-c3ncccn3)n2)c1` gave an inhibition [1] of 6.3%.
With `FC(F)(F)Oc1ccccc1-c1cccc(-c2csc(-c3ncco3)n2)c1` the inhibition [1] was 27%.
Work on `CC(=O)Nc1nc(-c2cccc(-c3ccccc3OC(F)(F)F)c2)cs1` yielded an inhibition [1] of 5%.
`NC(=O)c1nc(-c2cccc(-c3ccccc3C(F)(F)F)c2)c(Cl)[nH]1` showed an IC50 [2] of 2770 nM.
With `FC(F)(F)c1ccccc1-c1cccc(-c2c[nH]cn2)c1` the half-life [8] was 37.8 min, the IC50 [3] was 150 nM and the IC50 (Cytochrome P450 2C9) was < 50 nM. For the same molecule, the IC50 (Cytochrome P450 2D6) was < 50 nM, the IC50 (Cytochrome P450 3A4) was < 50 nM and the clearance [10] was 32 mL/min/kg. The inhibition at 1 µM (hERG (KCNH2)) was 75%, the IC50 [2] was 2100 nM and the bioavailability [13] was 71%.
Work on `Nc1nc(-c2cccc(-c3ccccc3OC(F)(F)F)c2)cs1` yielded an inhibition [1] of 84%.
With `OCc1nc(-c2cccc(-c3ccccc3OC(F)(F)F)c2)cs1` the IC50 [2] was 1800 nM.
With `Cn1cc(-c2ccc(F)c(-c3ccccc3OC(F)(F)F)c2)nc1C(N)=O` the IC50 [2] was 490 nM.
With `NC(=O)c1csc(-c2cccc(-c3ccccc3OC(F)(F)F)c2)n1` the IC50 [3] was 50 nM, the IC50 (Cytochrome P450 2C9) was 8790 nM and the IC50 (Cytochrome P450 2D6) was > 50000 nM. For the same molecule, the bioavailability [4] was 22%, the IC50 (Cytochrome P450 3A4) was > 50000 nM and the inhibition at 1 µM (hERG (KCNH2)) was 55%. For the same molecule, the half-life [5] was 44.4 min, the IC50 [2] was 260 nM and the clearance [6] was 112 mL/min/kg.
